Results taken from patent US4605614A, “Method for measuring plasmin” (Nitto Boseki Co., Ltd., priority 1981, dated 1986).
Where a SMILES comes first, the peptide text is derived from it. [ ]: non-standard residue; d: D form. The star is where a group is joined. pNA = O=[N+]([O-])c1ccc(N*)cc1; Tos = Cc1ccc(S(=O)(=O)*)cc1

What was measured:
Human Thrombin = conditions: read-out: Michaelis's constant (Km); cited from earlier work
plasmin (pig) = plasmin (pig) (Sus scrofa, UniProt P06867); experiment: Km, Vmax and Vmax/Km of substrates for plasmin (pig); type: biochemical, Porcine (pig); conditions: for Vmax (× 10^7): 405 nm; for Vmax (× 10^-7): TABLE 2, CHA substrates, plasmin (pig), 2,6-xylenol 615 nm
Chain of plasmin (pig) (P06867 97-809): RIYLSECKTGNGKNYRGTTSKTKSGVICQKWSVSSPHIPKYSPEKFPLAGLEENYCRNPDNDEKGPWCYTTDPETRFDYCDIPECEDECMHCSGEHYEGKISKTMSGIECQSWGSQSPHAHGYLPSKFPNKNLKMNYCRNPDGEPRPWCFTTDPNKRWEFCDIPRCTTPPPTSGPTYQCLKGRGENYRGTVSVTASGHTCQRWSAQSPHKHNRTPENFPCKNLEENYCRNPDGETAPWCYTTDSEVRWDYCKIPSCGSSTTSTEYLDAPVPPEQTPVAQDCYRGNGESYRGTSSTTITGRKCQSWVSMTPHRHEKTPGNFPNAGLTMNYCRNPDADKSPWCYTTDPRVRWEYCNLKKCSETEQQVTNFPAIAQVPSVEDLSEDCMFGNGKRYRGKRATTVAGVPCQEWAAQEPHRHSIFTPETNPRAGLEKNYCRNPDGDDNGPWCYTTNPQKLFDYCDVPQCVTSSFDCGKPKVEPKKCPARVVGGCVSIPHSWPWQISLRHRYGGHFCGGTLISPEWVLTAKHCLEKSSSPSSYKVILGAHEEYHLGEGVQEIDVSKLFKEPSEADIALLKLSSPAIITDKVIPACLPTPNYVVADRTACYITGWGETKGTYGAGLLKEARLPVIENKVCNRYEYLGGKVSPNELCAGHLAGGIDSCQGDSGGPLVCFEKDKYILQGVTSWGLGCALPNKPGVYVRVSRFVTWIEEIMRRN
From the text: The substrates produced by the above examples were used in the measurement of plasmin as follows: The principle of this measurement comprises quantitatively analyzing the decomposition product p-nitroaniline or 3-carboxy-4-hydroxyaniline produced by the enzymatic hydrolysis, by measuring the absorbance (O.D.) directly at 405 nm in the case of p-nitroaniline and, in the case of the 3-carboxy-4-hydroxyaniline at 615 nm after condensing it with 2,6-xylenol in the presence of an oxidant to develop a color.
For the measurements of these constants, the following method is adopted:
The enzyme and the substrate are mixed in a buffer solution and subjected to the hydrolysis for 30 seconds. The concentration of the substrate [S] is changed and the enzyme concentration is maintained constant. By measuring the absorbance (O.D.), the initial velocity of the hydrolysis can be determined. Where 1/V is plotted as a function of 1/[S], there is obtained a Lineweaver and Burk's linea from which graph the Vmax and Km can be determined.

Thrombin (TH) = Thrombin (TH) (Bos taurus, UniProt P00735); type: biochemical, Cow; conditions: pH 8.4, 37° C., 10 minutes, 1.0 NIH/ml; for Selectivity TH, absorbance (O.D.) at 405 nm: TABLE 3, PNA substrates, So = 0.54 mmole/l; for Selectivity TH, absorbance (O.D.) at 645 nm: TABLE 4, CHA substrates, So = 0.54
Chain of Thrombin (TH) (P00735 44-625): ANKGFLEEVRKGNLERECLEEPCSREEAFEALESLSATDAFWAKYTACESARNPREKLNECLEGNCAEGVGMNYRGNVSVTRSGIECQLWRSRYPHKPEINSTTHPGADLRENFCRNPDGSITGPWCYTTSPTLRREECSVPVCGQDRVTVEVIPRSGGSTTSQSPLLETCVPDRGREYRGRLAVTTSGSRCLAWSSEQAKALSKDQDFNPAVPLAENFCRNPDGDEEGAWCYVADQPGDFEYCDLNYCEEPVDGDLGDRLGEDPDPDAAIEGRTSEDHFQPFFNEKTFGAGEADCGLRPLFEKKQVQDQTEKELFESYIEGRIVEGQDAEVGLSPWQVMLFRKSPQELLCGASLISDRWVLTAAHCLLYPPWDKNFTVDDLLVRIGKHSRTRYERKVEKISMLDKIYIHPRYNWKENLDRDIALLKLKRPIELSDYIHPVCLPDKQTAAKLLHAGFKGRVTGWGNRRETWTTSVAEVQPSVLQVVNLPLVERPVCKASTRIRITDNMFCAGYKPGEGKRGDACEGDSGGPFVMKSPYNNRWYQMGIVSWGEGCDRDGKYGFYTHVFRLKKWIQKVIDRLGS

Plasmin (PL) = Plasmin (PL) (Sus scrofa, UniProt P06867); type: biochemical, Pig; conditions: pH 7.4, 37° C., 10 minutes, 0.32 CU/ml; for Selectivity PL, absorbance (O.D.) at 405 nm: TABLE 3, PNA substrates, So = 0.54 mmole/l; for Selectivity PL, absorbance (O.D.) at 645 nm: TABLE 4, CHA substrates, So = 0.54
Chain of Plasmin (PL) (P06867 97-809): as the sequence (P06867 97-809) above
Method: (§1) (1) Substrate solution concentration: 35 mmole/liter H2 O
(§2) (2) Buffer: Tris-hydrochloric acid buffer 50 mmole/l, NaCl 150 mmole/l (0.875%) was employed, and the pH for reaction was as follows depending on the enzyme.
Plasmin Pig Sigma (U.S.A.)
(§3) 0.5 ml of the buffer solution and 0.05 ml of the enzyme reagent were taken into a silicon-treated hard glass test tube or a plastic test tube, and preheated in a constant temperature bath at 37° C. for 5 minutes. Thereafter, 0.1 ml of the substrate solution was added to effect the enzymatic reaction at 37° C. for 10 minutes. Exactly after 10 minutes, 2.5 ml of the reaction terminating solution or the terminating and color developing reagent solution was added to terminate the enzymatic reaction, and after allowing to stand at 25° C. for 10 minutes, the absorbance at 405 nm or 645 nm was measured, in which [drawing 49]

Kallikrein (KL) = Kallikrein (KL) (Sus scrofa, UniProt P00752); type: biochemical, Pig; conditions: pH 7.9, 37° C., 10 minutes, 1.0 BAEE-U/ml; for Selectivity KL, absorbance (O.D.) at 405 nm: TABLE 3, PNA substrates, So = 0.54 mmole/l; for Selectivity KL, absorbance (O.D.) at 645 nm: TABLE 4, CHA substrates, So = 0.54
Chain of Kallikrein (KL) (P00752 8-246): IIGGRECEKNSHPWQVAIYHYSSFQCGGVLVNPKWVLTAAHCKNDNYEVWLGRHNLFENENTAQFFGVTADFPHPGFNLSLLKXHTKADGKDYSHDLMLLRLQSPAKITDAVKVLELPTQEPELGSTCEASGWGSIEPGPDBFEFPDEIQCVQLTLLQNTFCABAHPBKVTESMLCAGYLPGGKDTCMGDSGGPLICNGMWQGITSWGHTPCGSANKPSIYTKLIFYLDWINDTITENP
Method: (§4) The specificities of the novelly synthesized substrates were tested by reacting them with various enzymes respectively.
as §1, §2
(§5) 2,6-Xylenol 7.0 mmole+NaIO4 1.5 mmole/0.2N KOH
as §3

Factor-Xa (FXa) = Factor-Xa (FXa) (Bos taurus, UniProt P00743); type: biochemical, Cow; conditions: pH 8.4, 37° C., 10 minutes, 0.4 U/ml; for Selectivity FXa, absorbance (O.D.) at 405 nm: TABLE 3, PNA substrates, So = 0.54 mmole/l; for Selectivity FXa, absorbance (O.D.) at 645 nm: TABLE 4, CHA substrates, So = 0.54
Chain of Factor-Xa (FXa) (P00743 41-180): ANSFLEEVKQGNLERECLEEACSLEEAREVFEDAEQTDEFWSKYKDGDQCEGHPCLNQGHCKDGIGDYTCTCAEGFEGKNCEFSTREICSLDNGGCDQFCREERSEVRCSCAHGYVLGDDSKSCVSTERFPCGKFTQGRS
Chain of Factor-Xa (FXa) (P00743 234-492): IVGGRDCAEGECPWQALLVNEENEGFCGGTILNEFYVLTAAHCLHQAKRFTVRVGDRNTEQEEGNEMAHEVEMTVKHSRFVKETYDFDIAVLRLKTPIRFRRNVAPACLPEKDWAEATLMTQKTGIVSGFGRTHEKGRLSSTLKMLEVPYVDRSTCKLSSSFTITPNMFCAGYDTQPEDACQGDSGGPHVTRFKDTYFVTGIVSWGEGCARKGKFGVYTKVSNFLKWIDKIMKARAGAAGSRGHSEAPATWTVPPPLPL
Method: as §4, §1, §2, §5, §3

Urokinase (UK) = Urokinase (UK) (Homo sapiens, UniProt P00749); type: biochemical; conditions: pH 8.2, 37° C., 10 minutes, 1000 IU/ml; for Selectivity UK, absorbance (O.D.) at 405 nm: TABLE 3, PNA substrates, So = 0.54 mmole/l; for Selectivity UK, absorbance (O.D.) at 645 nm: TABLE 4, CHA substrates, So = 0.54
Human Plasmin = conditions: read-out: Michaelis's constant (Km); cited from earlier work
[1] = system: coagulation and linear dissolution related enzymes such as thrombin, Factor Xa, UK; conditions: prior substrate; cited from earlier work
[2] = TABLE 1, PNA substrates, plasmin (pig)
[3] = TABLE 1, V/Km of each sample divided by that of S2251
[4] = TABLE 2, V/Km of each sample divided by that of S2251 (so in the source)

Compound	Km (Human Thrombin) [µM]	Vmax (× 10^-6) [mole/min/Cu] (plasmin (pig); Porcine Plasmin, comparison table in description)	V/Km (× 10^-3) (plasmin (pig); [2])	Vmax (× 10^7) (plasmin (pig); [2])	Relative ratio (plasmin (pig); [3])	Selectivity TH, absorbance (O.D.) at 405 nm (Thrombin (TH)) [O.D.]	Selectivity PL, absorbance (O.D.) at 405 nm (Plasmin (PL)) [O.D.]	Selectivity KL, absorbance (O.D.) at 405 nm (Kallikrein (KL)) [O.D.]	Selectivity FXa, absorbance (O.D.) at 405 nm (Factor-Xa (FXa)) [O.D.]	Selectivity UK, absorbance (O.D.) at 405 nm (Urokinase (UK)) [O.D.]	Km (Human Plasmin) [µM]	selectivity (in words) [1]	Vmax (× 10^-7) (plasmin (pig))	Relative ratio (plasmin (pig); [4])	Selectivity TH, absorbance (O.D.) at 645 nm (Thrombin (TH)) [O.D.]	Selectivity PL, absorbance (O.D.) at 645 nm (Plasmin (PL)) [O.D.]	Selectivity KL, absorbance (O.D.) at 645 nm (Kallikrein (KL)) [O.D.]	Selectivity FXa, absorbance (O.D.) at 645 nm (Factor-Xa (FXa)) [O.D.]	Selectivity UK, absorbance (O.D.) at 645 nm (Urokinase (UK)) [O.D.]
N=C(N)NCCC[C@H](NC(=O)[C@@H]1CCCCN1C(=O)[C@H](N)Cc1ccccc1)C(=O)Nc1ccc([N+](=O)[O-])cc1 [S-2238]	7																		
CC(C)C[C@H](NC(=O)[C@H](N)C(C)C)C(=O)N[C@@H](CCCCN)C(=O)Nc1ccc([N+](=O)[O-])cc1 [S-2251, H-D-Val-Leu-Lys-PNA, reference compound] (HELM PEPTIDE1{[dV].L.K.[O=[N+]([O-])c1ccc(N[*:1])cc1]}$$$$V2.0)		4.0 × 10^-6 mole/min/Cu	11.449 × 10^-3	39.876 × 10^7	1.000	0.001	0.306	0.017	0.007	0.001	300	comparatively good selectivity							
CC(=O)NCCCC[C@@H](N)C(=O)N[C@@H](Cc1ccccc1)C(=O)N[C@@H](CCCCN)C(=O)Nc1ccc(O)c(C(=O)O)c1 [NPC-4, HD-Lys(AC)PheLysCHA.2HCl]													10.940 × 10^-7	39.351	0.001	0.144	0.006	0.002	0
NCCCC[C@H](NC(=O)[C@H](Cc1ccccc1)NC(=O)[C@H](N)CCC(=O)NCCCc1ccccc1)C(=O)Nc1ccc([N+](=O)[O-])cc1 [NPN-5]				24.892 × 10^7	5.534	0	0.525	0.014	0.005	0.001									
NCCCC[C@H](NC(=O)[C@H](Cc1ccccc1)NC(=O)[C@H](N)CCC(=O)OC1CCCCC1)C(=O)Nc1ccc([N+](=O)[O-])cc1 [NPN-3, HD-Glu(CHN)PheLysPNA.2HBr] (HELM PEPTIDE1{[dE].F.K.[O=[N+]([O-])c1ccc(N[*:1])cc1]}|CHEM1{[C1CCC(O[*:1])CC1]}$PEPTIDE1,CHEM1,1:R3-1:R1$$$V2.0)				65.287 × 10^7	17.726	0	0.466	0.009	0.003	0.001									
CC(C)C[C@H](NC(=O)[C@H](N)C(C)C)C(=O)N[C@@H](CCCCN)C(=O)Nc1ccc(O)c(C(=O)O)c1 [NPC-1, HD-ValLeuLysCHA.2HBr]													3.556 × 10^-7	1.000	0	0.013	0.002	0.002	0
Cc1ccc(S(=O)(=O)NCCCC[C@@H](N)C(=O)N[C@@H](CC(C)C)C(=O)N[C@@H](CCCCN)C(=O)Nc2ccc([N+](=O)[O-])cc2)cc1 [NPN-1, HD-Lys(Tos)LeuLysPNA.2HBr] (H-[dK](Tos)-Leu-Lys-pNA)				63.600 × 10^7	2.937	0	0.457	0.006	0.003	0.001									
NCCCC[C@H](NC(=O)[C@H](Cc1ccccc1)NC(=O)[C@H](N)CCC(=O)OCCc1ccccc1)C(=O)Nc1ccc([N+](=O)[O-])cc1 [NPN-8]				28.542 × 10^7	8.019	0	0.181	0.014	0.005	0.003									
Cc1ccc(C(=O)NCCCC[C@@H](N)C(=O)N[C@@H](Cc2ccccc2)C(=O)N[C@@H](CCCCN)C(=O)Nc2ccc(O)c(C(=O)O)c2)cc1 [NPC-6, HD-Lys(Toc)PheLysCHA.2HCl]													11.670 × 10^-7	137.973	0	0.147	0.007	0.001	0
NCCCC[C@H](NC(=O)[C@H](Cc1ccccc1)NC(=O)[C@H](N)CCCCNS(=O)(=O)c1ccccc1)C(=O)Nc1ccc(O)c(C(=O)O)c1 [NPC-15]													37.927 × 10^-7	64.180	0	0.480	0.010	0.002	0
Cc1ccc(S(=O)(=O)Oc2ccc(C[C@@H](N)C(=O)N[C@@H](Cc3ccccc3)C(=O)N[C@@H](CCCCN)C(=O)Nc3ccc(O)c(C(=O)O)c3)cc2)cc1 [NPC-11, HD-Tyr(Tos)PheLysCHA.2HCl]													17.018 × 10^-7	99.532	0.001	0.277	0.012	0.003	0.003
NCCCC[C@H](NC(=O)[C@H](Cc1ccccc1)NC(=O)[C@H](N)CCC(=O)NCCCCc1ccccc1)C(=O)Nc1ccc([N+](=O)[O-])cc1 [NPN-6]				28.209 × 10^7	5.427	0	0.646	0.018	0.003	0.012									
